# Source: US11111247B2, “Pyrazolopyrimidine compounds and uses thereof” (Incyte Corporation, priority 2018, dated 2021)
# Like-named read-outs stand apart in the source and are kept apart here.
# Columns and labels:
# [1] = biological target: FGFR3 (UP) (Homo sapiens (Human), UniProt P22607); assay: FGFR Enzymatic Assay, FGFR3 un-phosphorylated
# Method: (§1) The inhibitor potency of the exemplified compounds was determined in an enzyme discontinuous assay that measures peptide phosphorylation using FRET measurements to detect product formation. Inhibitors were serially diluted in DMSO and a volume of 0.2 μL was transferred to the wells of a 384-well plate. For the isoforms of FGFR (−1, −2, −3 wild-type and mutant isoforms, −4) including phosphorylated (P) and un-phosphorylated (UP) proteins, a 5 μL/well volume of enzyme diluted in assay buffer (50 mM HEPES, 10 mM MgCl2, 1 mM EGTA, 0.01% Tween-20, 5 mM DTT, pH 7.5) was added to the plate and pre-incubated with inhibitor for 5 to 15 minutes at ambient temperature. Appropriate controls (enzyme blank and enzyme with no inhibitor) were included on the plate. The reaction was initiated by the addition of a 5 μL/well volume containing both biotinylated [sequence] […] The plate was allowed to equilibrate for −10 minutes at ambient temperature before scanning on a PheraStar plate reader (BMG Labtech) instrument.
# (§2) Either GraphPad prism or XLfit was used to analyze the data. The IC50 values were derived by fitting the data to a four parameter logistic equation producing a sigmoidal dose-response curve with a variable Hill coefficient. Prism equation: Y=Bottom+(Top−Bottom)/(1+10^((LogIC50−X)*Hill slope)); XLfit equation: Y=(A+((B−A)/(1+((X/C)^D)))) where X is the logarithm of inhibitor concentration and Y is the response.
# [2] = biological target: FGFR1 (UP) (Homo sapiens (Human), UniProt P11362); assay: FGFR Enzymatic Assay, FGFR1 un-phosphorylated
# [3] = biological target: ALK2 (aa 147-end) (Homo sapiens (Human), UniProt Q04771); assay: ALK2 HTRF Assay; assay type: biochemical
# ALK2 (aa 147-end), sequence (Q04771 147-509): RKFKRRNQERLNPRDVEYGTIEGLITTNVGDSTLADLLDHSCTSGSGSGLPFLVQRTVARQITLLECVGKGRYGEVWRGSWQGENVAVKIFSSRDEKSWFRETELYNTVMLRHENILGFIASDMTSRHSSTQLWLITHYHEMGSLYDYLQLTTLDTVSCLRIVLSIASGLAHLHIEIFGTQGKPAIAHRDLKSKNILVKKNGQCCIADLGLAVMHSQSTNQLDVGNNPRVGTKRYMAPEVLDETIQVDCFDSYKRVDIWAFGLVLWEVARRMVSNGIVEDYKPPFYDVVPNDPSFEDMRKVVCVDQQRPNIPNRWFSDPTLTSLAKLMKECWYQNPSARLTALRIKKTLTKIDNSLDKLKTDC
# Method: The enzymatic assays were conducted in white 384-well polystyrene plates in a final volume of 8 μL. The inhibitors were serially diluted in DMSO and added to the plate wells prior to addition of the other reaction components. The assays were carried out at 25° C. in the assay buffer (50 mM HEPES, pH 7.1, 10% Glycerol, 0.01% Brij50, 10 mM MgCl2, 1 mM EGTA, 5 mM DTT, and 0.01% BSA), containing 50 nM LANCE Ultra ULight™-DNA Topoisomerase 2-alpha peptide (Perkin Elmer TRF0130), and 3 uM, 100 uM or 1 mM ATP (as specified). […] The reaction was read on a PHERAstar FS plate reader (BMG Labtech). IC50 determination was performed by fitting percent control activity versus the log of the inhibitor concentration using the IDBS XLFit and GraphPad Prism 5.0 software.
# [4] = biological target: ALK2 (Homo sapiens (Human), UniProt Q04771); assay: ALK2 Cellular Assay (phospho SMAD1 HTRF, BMP-7 stimulated HeLa cells); assay type: cell-based; conditions: HeLa cells, 200 ng/ml BMP-7, Phospho SMAD1 (S463/S465) HTRF; read-out: ALK2 Cellular Assay PSMAD
# ALK2, sequence (Q04771 21-509): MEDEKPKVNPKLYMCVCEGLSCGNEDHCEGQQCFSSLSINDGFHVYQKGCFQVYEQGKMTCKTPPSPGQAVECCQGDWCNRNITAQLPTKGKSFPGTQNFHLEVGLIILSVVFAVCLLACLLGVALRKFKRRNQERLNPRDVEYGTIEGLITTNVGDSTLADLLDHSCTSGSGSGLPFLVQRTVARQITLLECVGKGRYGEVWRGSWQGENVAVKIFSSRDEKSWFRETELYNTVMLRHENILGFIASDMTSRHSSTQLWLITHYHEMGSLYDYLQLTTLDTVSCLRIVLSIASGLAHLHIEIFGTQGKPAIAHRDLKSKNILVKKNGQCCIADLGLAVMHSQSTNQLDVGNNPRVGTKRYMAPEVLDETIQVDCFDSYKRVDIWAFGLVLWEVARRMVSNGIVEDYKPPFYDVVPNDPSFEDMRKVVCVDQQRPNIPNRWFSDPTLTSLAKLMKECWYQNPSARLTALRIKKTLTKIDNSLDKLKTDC
# Method: HeLa cells were cultured in MEM media with 10% FBS. […] HeLa cells were plated in 96 well flat bottomed plate at 50,000 cells per well and incubated overnight. Next day, media was removed and 50 μL of fresh complete media was added. 5 μL compound was added to cells (3 μM final concentration at highest) and incubated for 60 min at 37° C. 200 ng/ml BMP-7 was added and incubated for 30 min at 37° C. After incubation, the media was removed, washed 2×PBS, and proceeded with HTRF kit according to Cisbio HTRF kit instructions for measuring the Phospho SMAD1 (S463/S465). Finally, both the donor and acceptor were added into 384 well plates and incubated at room temperature overnight and the HTRF signal was measured via Pherastar the next day.
# [5] = biological target: FGFR2 (UP) (Homo sapiens (Human), UniProt P21802); assay: FGFR Enzymatic Assay, FGFR2 un-phosphorylated
# FGFR2 (UP), sequence (P21802 22-821): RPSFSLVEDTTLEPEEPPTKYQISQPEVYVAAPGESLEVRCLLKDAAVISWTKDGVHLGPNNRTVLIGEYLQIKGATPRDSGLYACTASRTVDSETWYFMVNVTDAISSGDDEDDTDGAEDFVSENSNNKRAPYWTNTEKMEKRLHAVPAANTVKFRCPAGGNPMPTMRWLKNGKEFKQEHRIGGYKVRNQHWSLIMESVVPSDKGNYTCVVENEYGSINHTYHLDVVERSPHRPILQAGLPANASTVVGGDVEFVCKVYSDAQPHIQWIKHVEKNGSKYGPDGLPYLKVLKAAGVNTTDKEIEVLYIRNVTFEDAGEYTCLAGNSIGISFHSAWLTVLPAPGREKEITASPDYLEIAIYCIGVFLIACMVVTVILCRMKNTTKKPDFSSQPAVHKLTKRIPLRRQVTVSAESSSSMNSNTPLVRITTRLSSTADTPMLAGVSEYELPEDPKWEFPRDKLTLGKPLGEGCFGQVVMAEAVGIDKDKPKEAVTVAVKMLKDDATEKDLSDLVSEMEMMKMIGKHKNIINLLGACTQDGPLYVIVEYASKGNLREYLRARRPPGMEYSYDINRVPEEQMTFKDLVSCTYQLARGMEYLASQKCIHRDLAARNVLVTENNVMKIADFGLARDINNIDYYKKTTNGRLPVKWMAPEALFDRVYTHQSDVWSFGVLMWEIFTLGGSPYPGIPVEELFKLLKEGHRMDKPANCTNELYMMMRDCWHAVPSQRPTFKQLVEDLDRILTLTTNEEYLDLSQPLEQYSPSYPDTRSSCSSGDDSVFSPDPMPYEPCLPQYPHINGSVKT
# Method: as §1, §2
# [6] = biological target: FGFR2 (P) (Homo sapiens (Human), UniProt P21802); assay: FGFR Enzymatic Assay, FGFR2 phosphorylated; conditions: phosphorylated enzyme, ATP near or below Km
# FGFR2 (P), sequence (P21802 22-821): as above
# [7] = system: RT112 cells; assay: Luminescent Viability Assay (LVA, FGFR3); assay type: cell-based; conditions: Homo sapiens, RT-112, 72 h, 3 days, CellTiter-Glo
# Method: RT112 cells were purchased from ATCC (Manassas, Va.) and maintained in RPMI, 10% FBS (Gibco/Life Technologies). To measure the effect of test compounds on the viability of cells, the cells were plated with RPMI 10% FBS (5×10^3 cells/well/in 50 μL) into black 96-well Greiner polystyrene in the presence or absence of 50 μl of a concentration range of test compounds. After 3 days, 100 μl of CellTiter-Glo Reagent (Promega) was added. Luminescence was read with a TopCount (PerkinElmer). IC50 determination was performed by fitting the curve of percent inhibition versus the log of the inhibitor concentration using the GraphPad Prism 5.0 software.
# [8] = read-out: FGFR3 (UP) IC50, un-phosphorylated enzyme, ATP near or below Km
# [9] = read-out: ALK2 3 μM IC50, 3 uM ATP
# [10] = read-out: ALK2 100 μM IC50, 100 uM ATP
# [11] = read-out: ALK2 1 mM IC50, 1 mM ATP
# [12] = read-out: FGFR1 (UP) IC50, un-phosphorylated enzyme, ATP near or below Km
# FGFR3 (UP), sequence (P22607 23-806): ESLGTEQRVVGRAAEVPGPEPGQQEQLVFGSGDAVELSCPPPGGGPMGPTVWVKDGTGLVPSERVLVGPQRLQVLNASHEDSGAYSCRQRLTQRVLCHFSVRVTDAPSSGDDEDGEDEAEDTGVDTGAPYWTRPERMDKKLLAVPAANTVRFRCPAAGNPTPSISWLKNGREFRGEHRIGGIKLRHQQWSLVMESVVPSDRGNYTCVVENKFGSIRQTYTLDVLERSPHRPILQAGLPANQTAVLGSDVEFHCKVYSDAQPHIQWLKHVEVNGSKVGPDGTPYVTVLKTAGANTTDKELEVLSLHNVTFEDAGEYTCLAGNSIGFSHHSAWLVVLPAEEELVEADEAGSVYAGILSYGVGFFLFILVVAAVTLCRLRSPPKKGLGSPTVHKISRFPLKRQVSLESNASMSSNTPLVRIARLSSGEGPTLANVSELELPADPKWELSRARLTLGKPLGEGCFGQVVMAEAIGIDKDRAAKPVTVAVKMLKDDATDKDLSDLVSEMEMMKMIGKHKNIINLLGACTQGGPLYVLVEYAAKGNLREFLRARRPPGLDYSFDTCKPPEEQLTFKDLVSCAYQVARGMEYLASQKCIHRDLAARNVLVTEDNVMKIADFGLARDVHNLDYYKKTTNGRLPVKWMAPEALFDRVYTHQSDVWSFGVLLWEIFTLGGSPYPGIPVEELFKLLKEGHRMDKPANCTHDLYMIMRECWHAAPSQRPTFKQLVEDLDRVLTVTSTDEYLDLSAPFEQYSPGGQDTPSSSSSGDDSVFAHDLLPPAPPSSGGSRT
# FGFR1 (UP), sequence (P11362 22-822): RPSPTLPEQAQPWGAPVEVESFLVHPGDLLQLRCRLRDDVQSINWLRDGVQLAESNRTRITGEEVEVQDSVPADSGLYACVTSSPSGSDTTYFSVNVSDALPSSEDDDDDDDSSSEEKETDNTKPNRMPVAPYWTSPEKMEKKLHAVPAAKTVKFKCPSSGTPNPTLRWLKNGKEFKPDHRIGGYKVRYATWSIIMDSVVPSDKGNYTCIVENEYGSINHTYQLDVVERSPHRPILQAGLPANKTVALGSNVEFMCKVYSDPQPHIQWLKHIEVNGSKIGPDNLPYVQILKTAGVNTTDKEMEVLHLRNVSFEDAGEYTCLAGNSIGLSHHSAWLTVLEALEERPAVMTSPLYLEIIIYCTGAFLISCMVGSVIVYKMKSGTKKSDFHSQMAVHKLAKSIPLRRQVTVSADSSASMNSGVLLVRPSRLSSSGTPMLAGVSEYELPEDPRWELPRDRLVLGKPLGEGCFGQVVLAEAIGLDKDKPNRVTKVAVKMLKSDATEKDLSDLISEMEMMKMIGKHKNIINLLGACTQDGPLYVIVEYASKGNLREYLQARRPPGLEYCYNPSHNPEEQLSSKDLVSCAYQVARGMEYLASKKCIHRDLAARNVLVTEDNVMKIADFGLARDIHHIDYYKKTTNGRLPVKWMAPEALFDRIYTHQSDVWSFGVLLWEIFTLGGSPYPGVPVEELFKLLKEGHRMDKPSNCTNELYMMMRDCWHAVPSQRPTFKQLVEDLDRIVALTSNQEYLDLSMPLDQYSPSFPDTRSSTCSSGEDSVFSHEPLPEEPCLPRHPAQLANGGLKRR
"IC50 [1, 8] [µM]",IC50 [2] [µM],"IC50 [3, 9] [µM]","IC50 [3, 10] [µM]","IC50 [3, 11] [µM]",IC50 [4] [µM],IC50 [5] [µM],IC50 [1] [µM],"IC50 ([3]; ALK2 1 mM IC50, 1 mM ATP) [µM]","IC50 ([5]; read-out: FGFR2 (UP) IC50, un-phosphorylated enzyme, ATP near or below Km) [µM]","IC50 ([3]; ALK2 3 μM IC50, 3 uM ATP) [µM]",IC50 ([6]; FGFR2 (P) IC50 (nM)) [nM],SMILES,"IC50 [2, 12] [µM]","IC50 ([3]; ALK2 100 μM IC50, 100 uM ATP) [µM]",IC50 ([6]; read-out: FGFR2 (P) IC50) [nM],IC50 [7] [µM]
< 0.1,0.1 to 0.5,< 0.1,< 0.1,< 0.1,< 0.1,0.1 to 0.5,–,–,–,–,–,"COC(=O)N1C[C@@H](C)N(c2ncc3[nH]nc(-c4ccc(N5CCN(C)[C@H](C)C5)nc4)c3n2)[C@@H](C)C1 [Example 33, Methyl (3R,5S)-4-(3-(6-((R)-3,4-dimethylpiperazin-1-yl)pyridin-3-yl)-1H-pyrazolo[4,3-d]pyrimidin-5-yl)-3,5-dimethylpiperazine-1-carboxylate]",–,–,–,–
–,0.5 to 2,< 0.1,< 0.1,< 0.1,0.1 to 0.5,0.5 to 2,0.5 to 2,–,–,–,–,"CCOC(=O)N1C[C@@H](C)N(c2ncc3[nH]nc(-c4ccc(N5CCN[C@H](C)C5)nc4)c3n2)[C@@H](C)C1 [Example 11, Ethyl (3R,5S)-3,5-dimethyl-4-(3-(6-((R)-3-methylpiperazin-1-yl)pyridin-3-yl)-1H-pyrazolo[4,3-d]pyrimidin-5-yl)piperazine-1-carboxylate]",–,–,–,–
–,0.1 to 0.5,< 0.1,< 0.1,–,0.1 to 0.5,0.1 to 0.5,0.1 to 0.5,0.1 to 0.5,–,–,–,"COC(=O)N1C[C@@H](C)N(c2ncc3[nH]nc(-c4ccc(N5CCN(C)CC5)c(F)c4)c3n2)[C@@H](C)C1 [Example 23, Methyl (3R,5S)-4-(3-(3-fluoro-4-(4-methylpiperazin-1-yl)phenyl)-1H-pyrazolo[4,3-d]pyrimidin-5-yl)-3,5-dimethylpiperazine-1-carboxylate]",–,–,–,–
–,–,< 0.1,< 0.1,< 0.1,0.1 to 0.5,0.5 to 2,0.5 to 2,–,–,–,–,"COCC(=O)N1C[C@@H](C)N(c2ncc3[nH]nc(-c4ccc(N5CCN[C@H](C)C5)nc4)c3n2)[C@@H](C)C1 [Example 6, 1-((3R,5S)-3,5-Dimethyl-4-(3-(6-((R)-3-methylpiperazin-1-yl)pyridin-3-yl)-1H-pyrazolo[4,3-d]pyrimidin-5-yl)piperazin-1-yl)-2-methoxyethan-1-one]",> 2,–,–,–
< 0.1,–,< 0.1,< 0.1,< 0.1,< 0.1,–,–,–,< 0.1,–,–,"COC(=O)N1C[C@@H](C)N(c2ncc3[nH]nc(-c4ccc(N5CCN[C@H](C)C5)nc4)c3n2)[C@@H](C)C1 [Example 17, Methyl (3R,5S)-3,5-dimethyl-4-(3-(6-((R)-3-methylpiperazin-1-yl)pyridin-3-yl)-1H-pyrazolo[4,3-d]pyrimidin-5-yl)piperazine-1-carboxylate]",–,–,–,–
–,–,–,–,> 2,0.5 to 2,0.5 to 2,–,–,–,0.1 to 0.5,–,"COC(=O)N1C[C@@H](C)N(c2ncc3[nH]nc(-c4ccc(N5CCC(O)CC5)cc4)c3n2)[C@@H](C)C1 [Example 34, Methyl (3R,5S)-4-(3-(4-(4-hydroxypiperidin-1-yl)phenyl)-1H-pyrazolo[4,3-d]pyrimidin-5-yl)-3,5-dimethylpiperazine-1-carboxylate]",> 2,–,–,–

# More lines, now with the values behind:
SMILES,"IC50 [1, 8] [µM]",IC50 [2] [µM],"IC50 [3, 9] [µM]","IC50 [3, 10] [µM]","IC50 [3, 11] [µM]",IC50 [4] [µM],IC50 [5] [µM],IC50 [1] [µM],"IC50 ([3]; ALK2 1 mM IC50, 1 mM ATP) [µM]","IC50 ([5]; read-out: FGFR2 (UP) IC50, un-phosphorylated enzyme, ATP near or below Km) [µM]","IC50 ([3]; ALK2 3 μM IC50, 3 uM ATP) [µM]",IC50 ([6]; FGFR2 (P) IC50 (nM)) [nM],"IC50 [2, 12] [µM]","IC50 ([3]; ALK2 100 μM IC50, 100 uM ATP) [µM]",IC50 ([6]; read-out: FGFR2 (P) IC50) [nM],IC50 [7] [µM]
"COC(=O)N1C[C@@H](C)N(c2ncc3[nH]nc(-c4ccc(N5CCN(C6CCOCC6)CC5)cc4)c3n2)[C@@H](C)C1 [Example 30, Methyl (3R,5S)-3,5-dimethyl-4-(3-(4-(4-(tetrahydro-2H-pyran-4-yl)piperazin-1-yl)phenyl)-1H-pyrazolo[4,3-d]pyrimidin-5-yl)piperazine-1-carboxylate]",–,–,< 0.1,< 0.1,–,0.1 to 0.5,0.1 to 0.5,–,–,–,–,–,–,–,–,–
"COC(=O)N1C[C@@H](C)N(c2ncc3[nH]nc(-c4ccc(N5CCN(C(C)(C)C(=O)O)CC5)cc4)c3n2)[C@@H](C)C1 [Example 31, 2-(4-(4-(5-((2R,6S)-4-(Methoxycarbonyl)-2,6-dimethylpiperazin-1-yl)-1H-pyrazolo[4,3-d]pyrimidin-3-yl)phenyl)piperazin-1-yl)-2-methylpropanoic acid]",–,–,< 0.1,< 0.1,–,< 0.1,0.1 to 0.5,–,–,–,–,–,–,–,–,–
"COC(=O)N1C[C@@H](C)N(c2ncc3[nH]nc(-c4ccc(N5CCN(C(C)CO)CC5)cc4)c3n2)[C@@H](C)C1 (stereo partly drawn) [Example 29, Methyl (3R,5S)-4-(3-(4-(4-(1-hydroxypropan-2-yl)piperazin-1-yl)phenyl)-1H-pyrazolo[4,3-d]pyrimidin-5-yl)-3,5-dimethylpiperazine-1-carboxylate]",–,–,< 0.1,< 0.1,–,< 0.1,0.5 to 2,–,–,–,–,–,–,–,–,–
"CNC(=O)c1ccc(-c2n[nH]c3cnc(N4[C@H](C)CN(C(=O)OC)C[C@@H]4C)nc23)cc1 [Example 26, Methyl (3R,5S)-3,5-dimethyl-4-(3-(4-(methylcarbamoyl)phenyl)-1H-pyrazolo[4,3-d]pyrimidin-5-yl)piperazine-1-carboxylate]",–,0.5 to 2,< 0.1,–,> 2,–,0.1 to 0.5,0.1 to 0.5,–,–,–,–,–,–,–,–
"CN1CC2CCC(C1=O)N2c1ncc2[nH]nc(-c3cnn(-c4ccc5nccn5c4)c3)c2n1 (stereo not shown) [Example 75, 8-(3-(1-(Imidazo[1,2-a]pyridin-6-yl)-1H-pyrazol-4-yl)-1H-pyrazolo[4,3-d]pyrimidin-5-yl)-3-methyl-3,8-diazabicyclo[3.2.1]octan-2-one]",< 0.1,–,–,–,–,–,–,–,–,–,0.5 to 2,–,< 0.1,0.5 to 2,< 100,0.5 to 2
"CN1CCN(c2ccc(-c3n[nH]c4cnc(N5C6CCC5C(=O)N(C)C6)nc34)cn2)CC1 (stereo not shown) [Example 60, 3-Methyl-8-(3-(6-(4-methylpiperazin-1-yl)pyridin-3-yl)-1H-pyrazolo[4,3-d]pyrimidin-5-yl)-3,8-diazabicyclo[3.2.1]octan-2-one]",< 0.1,–,< 0.1,–,–,–,–,–,–,–,–,–,< 0.1,0.5 to 2,< 100,0.1 to 0.5
"Cn1cc(-c2n[nH]c3cnc(N4CCc5cn[nH]c5C4)nc23)cn1 [Example 44, 3-(1-Methyl-1H-pyrazol-4-yl)-5-(1,4,5,7-tetrahydro-6H-pyrazolo[3,4-c]pyridin-6-yl)-1H-pyrazolo[4,3-d]pyrimidine]",< 0.1,0.1 to 0.5,–,–,–,–,–,–,–,–,0.5 to 2,–,–,0.5 to 2,< 100,0.5 to 2
"COC(=O)N1C[C@@H](C)N(c2ncc3[nH]nc(-c4ccc(C5CCN(CCO)C5)cc4)c3n2)[C@@H](C)C1 (stereo partly drawn) [Example 28, Methyl (3R,5S)-4-(3-(4-(1-(2-hydroxyethyl)pyrrolidin-3-yl)phenyl)-1H-pyrazolo[4,3-d]pyrimidin-5-yl)-3,5-dimethylpiperazine-1-carboxylate]",–,0.5 to 2,< 0.1,< 0.1,–,< 0.1,0.1 to 0.5,–,–,–,–,–,–,–,–,–
"Cn1cc(-c2n[nH]c3cnc(N4CCc5ncccc5C4)nc23)cn1 [Example 40, 6-(3-(1-Methyl-1H-pyrazol-4-yl)-1H-pyrazolo[4,3-d]pyrimidin-5-yl)-5,6,7,8-tetrahydro-1,6-naphthyridine]",< 0.1,0.5 to 2,–,–,–,–,–,–,–,–,0.5 to 2,100 to 500,–,0.5 to 2,–,0.5 to 2
